According to patent EP4509142A1, “FGFR4 AS TARGET IN CANCER TREATMENT” (Ona Therapeutics S.L., priority 2023, dated 2025):
Where two headings read alike, the source gives them in different places.

What was measured:
Assay in all cases: Dose-response to palbociclib, CyQUANT NF cell proliferation after 4 days
Format in all cases: cell-based
ZR751 = conditions: Homo sapiens, ZR-75-1
Method: (§1) The inventors next generated experimental cell lines models with acquired resistance to palbociclib derived from commercially available breast cancer cell lines MCF7 and T47D (ATCC), which were cultured according to supplier's recommendation. An MCF7-derived palbociclib-resistant (MCF7-PR) and a T47D-derived palbociclib-resistant (T47D-PR) cell lines were established by treating MCF7 and T47D with palbociclib for 6 months, starting at low concentration (1 nM) and increasing them at each passage until reaching 1 µM). MCF7-PR and T47D-PR cells were maintained in complete medium with 500 nM of palbociclib. The IC50 of sensitive MCF7 and T47D as well as derived palbociclib-resistant MCF7-PR and T47D-PR cell lines was evaluated by seeding 5000 tumor cells per well in 96-well plates and adding the following day increasing doses of Palbociclib. Proliferation was assessed after 4 days with CyQUANT NF Cell Proliferation (ThermoFisher Scientific) according to manufacturer's instructions. Fluorescence measurements were taken using FL800 Fluorescence plate reader with excitation at 485 nm and emission detection at 520 nm. Surviving fraction was calculated relative to untreated control cells using the formula: % Cell viability = (treated/untreated)*100 and IC^50 values were calculated with a non-linear regression model using GraphPad PRISM software.
(§2) Next, FGFR4-depletion was induced by means of stable shRNA expression and confirmed by Western blotting using standard procedures. Specifically, sensitive MCF7 and resistant MCFR7-PR and ZR751 were infected with two independent stable FGFR4 shRNAs (shFGFR4#1 and shFGFR4#2) and, as a control, a non-targeting scramble shRNA (shControl) (Fig.2C-2D). Response to palbociclib was evaluated by incubating the cells with increasing concentrations of palbociclib as described above.
In order to validate FGFR4 as a driver of CDK4/6i resistance, the inventors developed ZR751 cells that overexpressed wild-type FGFR4 (FGFR4wt) or constitutively active FGFR4 (FGFR4 Y367C) (Roidl et al., 2010). Control cells were infected with the backbone vector expressing red fluorescent protein (RFP).

MCF7-PR = system: MCF7-PR
Method: as §1, §2

T47D = conditions: Homo sapiens; parental sensitive T47D
Method: as §1

T47D-PR = conditions: palbociclib-resistant T47D-PR
Method: as §1

MCF7 = conditions: Homo sapiens; parental sensitive MCF7
Method: as §1

## CC(=O)c1c(C)c2cnc(Nc3ccc(N4CCNCC4)cn3)nc2n(C2CCCC2)c1=O [palbociclib]
ZR751; FGFR4 knockdown shFGFR4#1, read-out: IC50 ZR751 shFGFR4#1
  IC50: 0.0802 µM
ZR751; FGFR4 knockdown shFGFR4#2, read-out: IC50 ZR751 shFGFR4#2
  IC50: 0.125 µM
ZR751; control cells with backbone vector expressing RFP, read-out: IC50 ZR751 RFP
  IC50: 0.354 µM
ZR751; non-targeting scramble shRNA, read-out: IC50 ZR751 shControl
  IC50: 3.8 µM
ZR751; overexpressing wild-type FGFR4, read-out: IC50 ZR751 FGFR4wt
  IC50: ~4200 µM
MCF7-PR; FGFR4 knockdown shFGFR4#1, read-out: IC50 MCF7-PR shFGFR4#1
  IC50: 0.576 µM
MCF7-PR; FGFR4 knockdown shFGFR4#2, read-out: IC50 MCF7-PR shFGFR4#2
  IC50: 0.449 µM
MCF7-PR; non-targeting scramble shRNA, read-out: IC50 MCF7-PR shControl
  IC50: 1.55 µM
MCF7-PR; palbociclib-resistant MCF7-PR, read-out: IC50 MCF7-PR
  IC50: 2 µM
T47D
  IC50: 0.05 µM
T47D-PR
  IC50: 1.8 µM
MCF7
  IC50: 0.25 µM
